According to article PMC3914206:

Legend:
Assay in all cases: KiNativ chemical proteomics profiling in HeLa and PC3 cell lysates
Type in all cases: binding
[1] = target: T1, selected panels of kinases in HeLa and PC3 cell lysates (Homo sapiens, UniProt Q14012); settings: 10 uM; proteome HEL; peptide LVAIkCIAK; labeling site Lys1
T1 construct: endogenous in cells; host or cells: HeLa and PC3 cell lysates

[2] = target: T2, selected panels of kinases in HeLa and PC3 cell lysates (Homo sapiens, UniProt Q9Y5S2); settings: 10 uM, proteome PC3
T2 construct: endogenous in cells; host or cells: HeLa and PC3 cell lysates

[3] = target: T3, selected panels of kinases in HeLa and PC3 cell lysates (Homo sapiens, UniProt Q13535); settings: 10 uM, peptide FYIMMCkPK, labeling site ATP
T3 construct: endogenous in cells; host or cells: HeLa and PC3 cell lysates
T3 sequence (Q13535 whole entry): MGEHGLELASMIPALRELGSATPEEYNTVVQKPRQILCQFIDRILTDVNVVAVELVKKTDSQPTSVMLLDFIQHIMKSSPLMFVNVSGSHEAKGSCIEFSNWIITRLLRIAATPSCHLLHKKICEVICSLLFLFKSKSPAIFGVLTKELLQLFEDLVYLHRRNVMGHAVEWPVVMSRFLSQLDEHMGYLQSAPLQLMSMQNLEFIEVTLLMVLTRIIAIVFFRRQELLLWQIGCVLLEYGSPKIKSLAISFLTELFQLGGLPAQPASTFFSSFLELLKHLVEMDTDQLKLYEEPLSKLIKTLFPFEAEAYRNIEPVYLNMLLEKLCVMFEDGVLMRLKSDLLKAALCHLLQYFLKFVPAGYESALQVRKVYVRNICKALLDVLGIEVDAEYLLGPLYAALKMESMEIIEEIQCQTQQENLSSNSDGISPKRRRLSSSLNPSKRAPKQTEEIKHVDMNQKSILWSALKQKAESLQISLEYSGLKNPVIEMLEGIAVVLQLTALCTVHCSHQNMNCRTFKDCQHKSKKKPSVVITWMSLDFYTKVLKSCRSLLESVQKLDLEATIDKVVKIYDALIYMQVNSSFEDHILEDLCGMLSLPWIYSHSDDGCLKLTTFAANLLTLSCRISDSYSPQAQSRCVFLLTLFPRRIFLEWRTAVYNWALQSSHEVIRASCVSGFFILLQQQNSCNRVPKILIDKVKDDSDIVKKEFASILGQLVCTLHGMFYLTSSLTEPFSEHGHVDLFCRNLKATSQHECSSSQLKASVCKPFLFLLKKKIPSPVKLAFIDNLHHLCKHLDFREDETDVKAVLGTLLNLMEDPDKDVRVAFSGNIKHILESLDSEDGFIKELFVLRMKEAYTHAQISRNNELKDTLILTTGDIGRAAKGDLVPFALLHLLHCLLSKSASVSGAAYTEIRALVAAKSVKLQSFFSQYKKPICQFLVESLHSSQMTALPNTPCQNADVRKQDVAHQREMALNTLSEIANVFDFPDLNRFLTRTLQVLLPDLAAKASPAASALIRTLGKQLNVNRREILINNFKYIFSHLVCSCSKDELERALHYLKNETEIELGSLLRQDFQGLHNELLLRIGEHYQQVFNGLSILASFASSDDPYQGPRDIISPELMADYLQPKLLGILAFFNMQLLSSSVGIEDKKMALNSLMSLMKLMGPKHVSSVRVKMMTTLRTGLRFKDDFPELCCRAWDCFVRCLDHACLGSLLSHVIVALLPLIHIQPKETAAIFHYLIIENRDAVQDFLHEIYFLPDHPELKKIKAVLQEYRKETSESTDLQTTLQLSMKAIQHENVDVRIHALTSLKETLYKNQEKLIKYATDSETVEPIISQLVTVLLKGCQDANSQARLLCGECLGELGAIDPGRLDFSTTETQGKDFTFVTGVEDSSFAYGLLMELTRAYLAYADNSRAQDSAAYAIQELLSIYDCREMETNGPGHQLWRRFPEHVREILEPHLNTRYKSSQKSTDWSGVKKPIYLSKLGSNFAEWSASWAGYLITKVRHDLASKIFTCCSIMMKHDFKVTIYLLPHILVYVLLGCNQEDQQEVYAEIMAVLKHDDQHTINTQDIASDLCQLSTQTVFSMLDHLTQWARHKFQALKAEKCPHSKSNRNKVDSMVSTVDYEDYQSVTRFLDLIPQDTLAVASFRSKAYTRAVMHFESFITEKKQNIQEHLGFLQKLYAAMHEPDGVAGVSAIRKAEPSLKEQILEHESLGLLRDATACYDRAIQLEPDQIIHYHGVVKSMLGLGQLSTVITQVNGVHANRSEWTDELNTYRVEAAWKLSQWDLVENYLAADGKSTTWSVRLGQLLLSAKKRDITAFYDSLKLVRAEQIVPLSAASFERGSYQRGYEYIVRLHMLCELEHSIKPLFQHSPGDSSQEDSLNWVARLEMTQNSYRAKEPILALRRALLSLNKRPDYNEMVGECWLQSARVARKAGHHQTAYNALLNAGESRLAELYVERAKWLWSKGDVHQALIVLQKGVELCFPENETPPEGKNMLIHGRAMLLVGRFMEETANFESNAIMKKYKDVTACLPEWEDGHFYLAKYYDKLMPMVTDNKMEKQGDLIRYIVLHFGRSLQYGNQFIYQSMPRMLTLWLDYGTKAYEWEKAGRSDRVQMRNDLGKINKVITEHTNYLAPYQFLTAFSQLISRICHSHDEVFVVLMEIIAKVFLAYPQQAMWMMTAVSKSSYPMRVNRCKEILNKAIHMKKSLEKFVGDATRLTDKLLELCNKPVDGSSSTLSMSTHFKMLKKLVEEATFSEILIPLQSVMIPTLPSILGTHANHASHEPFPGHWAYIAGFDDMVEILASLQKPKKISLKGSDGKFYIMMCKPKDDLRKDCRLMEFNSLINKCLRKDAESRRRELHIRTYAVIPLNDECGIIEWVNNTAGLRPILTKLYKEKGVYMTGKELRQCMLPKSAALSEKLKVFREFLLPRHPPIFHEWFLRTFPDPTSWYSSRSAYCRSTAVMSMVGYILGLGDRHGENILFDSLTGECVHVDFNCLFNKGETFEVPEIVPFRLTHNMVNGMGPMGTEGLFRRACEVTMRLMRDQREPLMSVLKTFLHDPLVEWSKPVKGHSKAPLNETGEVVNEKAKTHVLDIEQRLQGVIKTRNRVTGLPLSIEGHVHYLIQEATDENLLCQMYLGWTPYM

[4] = target: T4, selected panels of kinases in HeLa and PC3 cell lysates (Homo sapiens, UniProt Q8TD19); settings: 10 uM
T4 construct: endogenous in cells; host or cells: HeLa and PC3 cell lysates
T4 sequence (Q8TD19 1-979): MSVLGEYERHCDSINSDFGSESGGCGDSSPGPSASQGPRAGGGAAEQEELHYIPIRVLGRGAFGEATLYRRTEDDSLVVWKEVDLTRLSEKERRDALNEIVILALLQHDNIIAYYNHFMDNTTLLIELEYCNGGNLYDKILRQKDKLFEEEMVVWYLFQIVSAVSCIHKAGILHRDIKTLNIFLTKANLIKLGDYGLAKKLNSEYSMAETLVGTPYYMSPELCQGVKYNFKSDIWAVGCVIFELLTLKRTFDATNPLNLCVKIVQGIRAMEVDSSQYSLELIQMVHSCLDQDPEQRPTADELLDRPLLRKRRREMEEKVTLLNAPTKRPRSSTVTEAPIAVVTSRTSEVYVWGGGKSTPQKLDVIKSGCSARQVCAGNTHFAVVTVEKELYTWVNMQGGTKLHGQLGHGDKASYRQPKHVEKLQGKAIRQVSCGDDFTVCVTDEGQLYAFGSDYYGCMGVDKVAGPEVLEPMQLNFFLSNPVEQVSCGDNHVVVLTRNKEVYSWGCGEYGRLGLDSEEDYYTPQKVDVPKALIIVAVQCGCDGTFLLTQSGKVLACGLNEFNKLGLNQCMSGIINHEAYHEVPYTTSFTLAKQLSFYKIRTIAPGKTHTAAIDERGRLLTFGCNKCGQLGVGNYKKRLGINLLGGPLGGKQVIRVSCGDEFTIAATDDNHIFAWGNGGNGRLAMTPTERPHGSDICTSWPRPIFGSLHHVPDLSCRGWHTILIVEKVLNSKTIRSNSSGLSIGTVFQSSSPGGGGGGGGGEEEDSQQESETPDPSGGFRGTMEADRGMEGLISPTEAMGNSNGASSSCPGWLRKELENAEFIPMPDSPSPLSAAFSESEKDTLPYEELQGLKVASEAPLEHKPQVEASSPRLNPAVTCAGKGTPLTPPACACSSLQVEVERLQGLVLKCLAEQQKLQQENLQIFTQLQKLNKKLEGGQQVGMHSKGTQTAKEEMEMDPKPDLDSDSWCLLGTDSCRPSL

[5] = target: T5, selected panels of kinases in HeLa and PC3 cell lysates (Homo sapiens, UniProt P50613); settings: 10 uM; proteome HEL; peptide DLk[…]; labeling site Lys2
T5 construct: endogenous in cells; host or cells: HeLa and PC3 cell lysates

[6] = target: T6, selected panels of kinases in HeLa and PC3 cell lysates (Homo sapiens, UniProt P49760); settings: 10 uM; proteome PC3; peptide LTHTDLk[…]; labeling site Lys2
T6 construct: endogenous in cells; host or cells: HeLa and PC3 cell lysates

[7] = target: T7, selected panels of kinases in HeLa and PC3 cell lysates (Homo sapiens, UniProt Q8IU85); settings: 10 uM; proteome HEL; peptide LFAVkCIPK; labeling site Lys1
T7 construct: endogenous in cells; host or cells: HeLa and PC3 cell lysates

[8] = target: T8, selected panels of kinases in HeLa and PC3 cell lysates (Homo sapiens, UniProt Q05397); settings: 10 uM; proteome PC3; peptide […]kTCK; labeling site Lys1
T8 construct: endogenous in cells; host or cells: HeLa and PC3 cell lysates

[9] = target: T9, selected panels of kinases in HeLa and PC3 cell lysates (Homo sapiens, UniProt Q13523); settings: 10 uM; PRP4; peptide […]k[…]; proteome PC3; labeling site Lys2
T9 construct: endogenous in cells; host or cells: HeLa and PC3 cell lysates

[10] = target: T10, selected panels of kinases in HeLa and PC3 cell lysates (Homo sapiens, UniProt Q9Y2H1); settings: 10 uM; proteome PC3; peptide DTGHIYAMkILR; labeling site Lys1
T10 construct: endogenous in cells; host or cells: HeLa and PC3 cell lysates

[11] = target: T11, selected panels of kinases in HeLa and PC3 cell lysates (Homo sapiens, UniProt P50750); settings: 10 uM; proteome PC3; peptide DMkAANVLITR; labeling site Lys2
T11 construct: endogenous in cells; host or cells: HeLa and PC3 cell lysates

[12] = target: T12, selected panels of kinases in HeLa and PC3 cell lysates (Homo sapiens, UniProt O14936); settings: 10 uM; proteome PC3; peptide ETGQQFAVkIVDVAK; labeling site Lys1
T12 construct: endogenous in cells; host or cells: HeLa and PC3 cell lysates
T12 sequence (O14936 whole entry): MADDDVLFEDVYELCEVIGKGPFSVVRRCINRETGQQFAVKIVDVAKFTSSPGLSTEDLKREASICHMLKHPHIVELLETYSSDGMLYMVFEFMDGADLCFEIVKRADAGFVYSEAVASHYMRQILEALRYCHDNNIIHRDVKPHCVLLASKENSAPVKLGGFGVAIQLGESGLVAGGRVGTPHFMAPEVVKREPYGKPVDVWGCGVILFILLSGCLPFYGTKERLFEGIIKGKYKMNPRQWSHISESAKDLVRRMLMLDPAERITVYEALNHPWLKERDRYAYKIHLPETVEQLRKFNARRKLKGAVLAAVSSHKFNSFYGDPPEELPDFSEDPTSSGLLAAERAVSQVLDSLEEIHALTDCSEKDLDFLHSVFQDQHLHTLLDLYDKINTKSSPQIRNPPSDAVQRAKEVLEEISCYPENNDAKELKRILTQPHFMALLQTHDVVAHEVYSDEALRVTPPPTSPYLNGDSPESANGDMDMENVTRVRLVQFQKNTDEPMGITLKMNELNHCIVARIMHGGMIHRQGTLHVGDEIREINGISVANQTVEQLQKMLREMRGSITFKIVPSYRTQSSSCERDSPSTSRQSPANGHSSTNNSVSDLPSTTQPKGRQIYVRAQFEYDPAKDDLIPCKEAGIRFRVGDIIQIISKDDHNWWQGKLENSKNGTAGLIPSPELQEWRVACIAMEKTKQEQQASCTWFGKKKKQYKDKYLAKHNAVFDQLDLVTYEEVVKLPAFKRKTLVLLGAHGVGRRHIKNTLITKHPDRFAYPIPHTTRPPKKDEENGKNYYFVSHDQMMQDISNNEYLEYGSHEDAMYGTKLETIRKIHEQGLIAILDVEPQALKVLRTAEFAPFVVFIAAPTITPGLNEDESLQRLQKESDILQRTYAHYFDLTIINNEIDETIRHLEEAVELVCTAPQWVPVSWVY

[13] = target: T13, selected panels of kinases in HeLa and PC3 cell lysates (Homo sapiens, UniProt P16591); settings: 10 uM, peptide TSVAVk[…], labeling site Lys1
T13 construct: endogenous in cells; host or cells: HeLa and PC3 cell lysates
T13 sequence (P16591 whole entry): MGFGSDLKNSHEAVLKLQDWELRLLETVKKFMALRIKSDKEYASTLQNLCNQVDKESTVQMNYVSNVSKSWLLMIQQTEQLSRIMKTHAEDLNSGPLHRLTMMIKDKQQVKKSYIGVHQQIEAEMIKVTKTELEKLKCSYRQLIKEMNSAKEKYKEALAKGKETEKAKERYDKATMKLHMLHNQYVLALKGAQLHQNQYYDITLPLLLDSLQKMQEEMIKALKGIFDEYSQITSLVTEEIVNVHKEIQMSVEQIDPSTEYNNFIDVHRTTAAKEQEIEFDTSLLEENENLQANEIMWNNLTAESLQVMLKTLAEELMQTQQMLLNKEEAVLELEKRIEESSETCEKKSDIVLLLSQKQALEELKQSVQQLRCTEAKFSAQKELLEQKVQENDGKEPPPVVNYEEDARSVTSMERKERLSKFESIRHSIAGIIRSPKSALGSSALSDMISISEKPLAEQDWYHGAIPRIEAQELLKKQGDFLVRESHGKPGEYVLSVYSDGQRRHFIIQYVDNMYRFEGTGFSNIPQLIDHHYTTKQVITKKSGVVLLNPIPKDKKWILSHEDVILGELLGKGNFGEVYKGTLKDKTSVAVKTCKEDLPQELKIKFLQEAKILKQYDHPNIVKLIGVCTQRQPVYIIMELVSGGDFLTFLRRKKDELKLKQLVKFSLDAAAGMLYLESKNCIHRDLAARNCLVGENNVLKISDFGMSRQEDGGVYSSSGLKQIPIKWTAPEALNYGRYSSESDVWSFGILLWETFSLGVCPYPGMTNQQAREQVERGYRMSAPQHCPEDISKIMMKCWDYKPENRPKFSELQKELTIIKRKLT

[14] = target: T14, selected panels of kinases in HeLa and PC3 cell lysates (Homo sapiens, UniProt Q00537); settings: 10 uM; PCTAIRE2; peptide DLkPQNLLINEK; proteome HEL; labeling site Lys2
T14 construct: endogenous in cells; host or cells: HeLa and PC3 cell lysates

[15] = target: T15, selected panels of kinases in HeLa and PC3 cell lysates (Homo sapiens, UniProt Q86SG6); settings: 10 uM; proteome PC3; peptide DLkTQNILLDK; labeling site Lys2
T15 construct: endogenous in cells; host or cells: HeLa and PC3 cell lysates

[16] = target: T16, selected panels of kinases in HeLa and PC3 cell lysates (Homo sapiens, UniProt O96017); settings: 10 uM
T16 construct: endogenous in cells; host or cells: HeLa and PC3 cell lysates
T16 sequence (O96017 whole entry): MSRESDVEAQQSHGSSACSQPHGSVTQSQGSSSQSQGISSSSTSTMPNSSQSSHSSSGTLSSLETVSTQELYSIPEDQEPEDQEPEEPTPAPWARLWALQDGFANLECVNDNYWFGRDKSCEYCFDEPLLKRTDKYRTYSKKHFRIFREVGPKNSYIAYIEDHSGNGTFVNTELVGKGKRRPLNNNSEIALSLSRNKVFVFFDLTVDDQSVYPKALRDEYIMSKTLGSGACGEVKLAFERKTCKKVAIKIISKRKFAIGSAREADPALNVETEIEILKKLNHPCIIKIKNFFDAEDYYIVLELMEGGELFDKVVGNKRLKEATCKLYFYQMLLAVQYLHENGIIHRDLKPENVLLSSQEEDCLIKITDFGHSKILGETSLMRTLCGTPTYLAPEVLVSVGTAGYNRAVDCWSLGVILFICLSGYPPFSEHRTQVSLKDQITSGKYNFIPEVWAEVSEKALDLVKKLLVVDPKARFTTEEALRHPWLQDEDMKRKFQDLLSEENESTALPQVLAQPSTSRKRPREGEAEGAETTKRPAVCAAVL

[17] = target: T17, selected panels of kinases in HeLa and PC3 cell lysates (Homo sapiens, UniProt P53350); settings: 10 uM; PLK1; peptide DLk[…]; proteome HEL; labeling site Lys2
T17 construct: endogenous in cells; host or cells: HeLa and PC3 cell lysates

[18] = peptide DIk[…], labeling site Lys2
[19] = peptide […]kLPETK, labeling site Other
[20] = proteome HEL, peptide DIkTLNIFLTK, labeling site Lys2
[21] = proteome HEL, peptide LGDYGLAkK, labeling site Activation Loop
[22] = proteome PC3, peptide DIkTLNIFLTK, labeling site Lys2
[23] = proteome PC3, peptide LGDYGLAkK, labeling site Activation Loop
[24] = proteome HEL, peptide DLk[…], labeling site Lys2
[25] = proteome PC3, peptide DLk[…], labeling site Lys2
[26] = proteome PC3, peptide VAIkIISK, labeling site Lys1

CCOc1cc(C(=O)N2CCC(N3CCN(C)CC3)CC2)ccc1Nc1ncc2c(n1)N(C1CCCC1)c1ccccc1C(=O)N2C [Compound 26]
% Inhibiton, CaMK1a [1]: 36%
% Inhibiton, MRCKb [2, 18]: 1.8%
% Inhibiton, MRCKb [2, 19]: 9.2%
% Inhibiton, ATR ([3]; proteome HEL): -9.8%
% Inhibiton, ATR ([3]; proteome PC3): -4.3%
% Inhibiton, NEK9 [4, 20]: 7.6%
% Inhibiton, NEK9 [4, 21]: -3%
% Inhibiton, NEK9 [4, 22]: -4.7%
% Inhibiton, NEK9 [4, 23]: 6.4%
% Inhibiton, CDK7 [5]: 22.2%
% Inhibiton, CLK2 [6]: 9.1%
% Inhibiton, CaMK1d [7]: 19.9%
% Inhibiton, FAK [8]: 48.4%
% Inhibition PRP4 [9]: 5.5%
% Inhibiton, NDR2 [10]: 8.2%
% Inhibiton, CDK9 [11]: 0.7%
% Inhibiton, CASK [12]: -36.1%
% Inhibiton, FER ([13]; proteome HEL): 24.7%
% Inhibiton, FER ([13]; proteome PC3): 12%
% Inhibition PCTAIRE2 [14]: 1.4%
% Inhibiton, NEK8 [15]: -8.1%
% Inhibiton, CHK2 [16, 24]: -18.8%
% Inhibiton, CHK2 [16, 25]: 14.1%
% Inhibiton, CHK2 [16, 26]: 4.6%
% Inhibition PLK1 [17]: 23.9%

COc1cc(C(=O)N2CCC(N3CCN(C)CC3)CC2)ccc1Nc1ncc2c(n1)N(C1CCCC1)c1ccccc1C(=O)N2C [Compound 25, 11-cyclopentyl-2-((2-methoxy-4-(4-(4-methylpiperazin-1-yl)piperidine-1-carbonyl)phenyl)amino)-5-methyl-5H-benzo[e]pyrimido[5,4-b][1,4]diazepin-6(11H)-one]
% Inhibiton, CaMK1a [1]: 19.1%
% Inhibiton, MRCKb [2, 18]: -5.1%
% Inhibiton, MRCKb [2, 19]: 6.2%
% Inhibiton, ATR ([3]; proteome HEL): 8.5%
% Inhibiton, ATR ([3]; proteome PC3): 21.0%
% Inhibiton, NEK9 [4, 20]: 14.6%
% Inhibiton, NEK9 [4, 21]: 1.9%
% Inhibiton, NEK9 [4, 22]: 1.6%
% Inhibiton, NEK9 [4, 23]: 6.7%
% Inhibiton, CDK7 [5]: 67.9%
% Inhibiton, CLK2 [6]: -17.0%
% Inhibiton, CaMK1d [7]: 5.8%
% Inhibiton, FAK [8]: 79.4%
% Inhibition PRP4 [9]: -11.9%
% Inhibiton, NDR2 [10]: -0.235%
% Inhibiton, CDK9 [11]: 10.0%
% Inhibiton, CASK [12]: -0.2%
% Inhibiton, FER ([13]; proteome HEL): 21.3%
% Inhibiton, FER ([13]; proteome PC3): 28.9%
% Inhibition PCTAIRE2 [14]: 4.8%
% Inhibiton, NEK8 [15]: -18.9%
% Inhibiton, CHK2 [16, 24]: 15.6%
% Inhibiton, CHK2 [16, 25]: 0.0283%
% Inhibiton, CHK2 [16, 26]: 11.3%
% Inhibition PLK1 [17]: 9.6%
